One test concerns the target T1, DNA topoisomerase (Yersinia pestis, UniProt A0A2S9PM60).
T1 sequence (A0A2S9PM60 whole entry): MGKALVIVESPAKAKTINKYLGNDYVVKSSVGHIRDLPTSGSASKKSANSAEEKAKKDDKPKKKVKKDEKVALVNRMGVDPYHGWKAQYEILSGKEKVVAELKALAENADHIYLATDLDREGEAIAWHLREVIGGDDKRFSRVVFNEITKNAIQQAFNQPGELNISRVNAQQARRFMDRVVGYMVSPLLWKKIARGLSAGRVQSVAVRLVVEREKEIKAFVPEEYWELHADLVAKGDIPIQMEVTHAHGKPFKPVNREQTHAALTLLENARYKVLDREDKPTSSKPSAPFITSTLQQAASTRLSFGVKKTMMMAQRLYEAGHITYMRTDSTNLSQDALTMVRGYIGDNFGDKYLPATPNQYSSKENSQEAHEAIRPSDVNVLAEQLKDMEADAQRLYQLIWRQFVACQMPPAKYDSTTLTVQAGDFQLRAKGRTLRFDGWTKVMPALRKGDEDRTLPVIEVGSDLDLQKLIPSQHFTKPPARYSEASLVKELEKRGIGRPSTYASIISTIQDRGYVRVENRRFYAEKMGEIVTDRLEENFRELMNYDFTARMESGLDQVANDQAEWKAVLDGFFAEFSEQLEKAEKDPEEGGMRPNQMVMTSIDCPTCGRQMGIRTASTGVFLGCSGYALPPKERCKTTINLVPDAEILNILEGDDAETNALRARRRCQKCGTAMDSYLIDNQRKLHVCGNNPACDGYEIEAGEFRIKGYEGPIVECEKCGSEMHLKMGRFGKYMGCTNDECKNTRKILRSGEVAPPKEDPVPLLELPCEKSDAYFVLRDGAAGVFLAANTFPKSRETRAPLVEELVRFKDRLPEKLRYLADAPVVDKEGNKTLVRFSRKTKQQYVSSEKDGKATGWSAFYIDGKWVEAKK
Nature of the test: Y. pestis Topo-I inhibitors, cleavage product readout, dose response, biochemical, cherry-pick (AID 588525).

Test [1] in a line: HEp-2 cell cytotoxicity, dose response, cytotoxicity control for RSV inhibitor project, HTS (AID 2410). Format: functional. The conditions noted are these: human respiratory syncytial virus.
Test [2] deals with T2, Endoribonuclease toxin MazF (Escherichia coli K-12, UniProt P0AE70).
T2 sequence (P0AE70 whole entry): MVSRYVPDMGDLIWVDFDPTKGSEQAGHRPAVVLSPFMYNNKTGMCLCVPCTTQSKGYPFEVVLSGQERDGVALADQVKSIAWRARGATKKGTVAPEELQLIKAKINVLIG
As to the kind of experiment: MazF toxin RNase activators, dose response, biochemical, fluorescence, single-stranded RNA substrate, uHTS hits (AID 588481). Format: functional.

For test [3], the target named is T3, RNA-binding protein pos-1 (Caenorhabditis elegans, UniProt G5EF15).
T3 sequence (G5EF15 whole entry): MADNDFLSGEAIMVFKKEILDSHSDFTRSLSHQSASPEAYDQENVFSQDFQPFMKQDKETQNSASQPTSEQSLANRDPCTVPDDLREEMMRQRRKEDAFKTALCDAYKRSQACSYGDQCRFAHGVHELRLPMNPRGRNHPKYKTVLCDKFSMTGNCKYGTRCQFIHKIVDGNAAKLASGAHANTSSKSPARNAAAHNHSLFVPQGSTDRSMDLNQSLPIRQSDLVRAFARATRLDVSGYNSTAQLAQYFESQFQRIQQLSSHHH
Nature of the test: inhibitors of POS-1/mex-3 RNA binding, dose response, biochemical, fluorescence polarization (AID 1964).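 Note: purified POS-1 fused to maltose binding protein made in E. coli; potency of compounds blocking POS-1 binding to fluorescent RNA.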

The target in test [4] is T4, Zinc finger protein mex-5 (Caenorhabditis elegans, UniProt Q9XUB2).
T4 sequence (Q9XUB2 whole entry): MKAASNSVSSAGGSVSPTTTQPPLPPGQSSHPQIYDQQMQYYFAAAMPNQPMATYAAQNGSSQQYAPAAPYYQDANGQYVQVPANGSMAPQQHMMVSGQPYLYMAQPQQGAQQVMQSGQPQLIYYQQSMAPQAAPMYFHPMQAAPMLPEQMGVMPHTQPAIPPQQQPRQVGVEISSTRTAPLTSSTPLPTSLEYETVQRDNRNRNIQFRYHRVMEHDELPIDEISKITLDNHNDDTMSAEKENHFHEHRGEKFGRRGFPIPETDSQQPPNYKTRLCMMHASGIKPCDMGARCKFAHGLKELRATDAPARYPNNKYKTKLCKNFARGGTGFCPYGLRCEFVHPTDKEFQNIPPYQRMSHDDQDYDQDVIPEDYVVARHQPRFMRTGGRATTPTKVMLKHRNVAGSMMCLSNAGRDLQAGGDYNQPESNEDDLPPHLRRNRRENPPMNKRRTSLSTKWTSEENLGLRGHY
As to the kind of experiment: MEX-5/TCR-2 RNA interaction inhibitors, dose response, biochemical, C. elegans, fluorescence polarization (AID 1960).

Test [5] has as its target T2, Endoribonuclease toxin MazF. Nature of the test: fluorescent RNA oligo signal without MazF, dose response, counter-screen for MazEF activator project, biochemical, fluorescence, single-stranded RNase substrate (AID 588502). It counts as functional.
A further test has as its target Beta-galactosidase (Escherichia coli, UniProt Q8VNN2). Nature of the test: PubChem AID 485352. Format: functional.
Test [6] has as its target T5, Type-1 angiotensin II receptor (Homo sapiens, UniProt P30556).
T5 sequence (P30556 whole entry): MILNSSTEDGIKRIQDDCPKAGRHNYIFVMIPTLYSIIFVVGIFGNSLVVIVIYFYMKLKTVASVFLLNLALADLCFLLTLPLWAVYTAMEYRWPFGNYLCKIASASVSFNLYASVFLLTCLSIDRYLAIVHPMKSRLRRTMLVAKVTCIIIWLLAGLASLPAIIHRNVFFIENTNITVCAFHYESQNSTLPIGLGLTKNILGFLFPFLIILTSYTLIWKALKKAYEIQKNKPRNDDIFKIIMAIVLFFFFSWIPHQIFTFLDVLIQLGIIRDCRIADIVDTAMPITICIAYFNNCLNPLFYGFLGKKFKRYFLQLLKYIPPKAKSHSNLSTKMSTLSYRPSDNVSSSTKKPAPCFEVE
Nature of the test: AT1 receptor antagonists, dose response, selectivity assay for APJ receptor antagonist project, cell-based, uHTS hits (AID 463214).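 Note: antagonist potency against angiotensin II stimulated AT1 response.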 It counts as functional.

For test [7], the target named is T6, Heat shock factor protein 1 (Mus musculus, UniProt P38532).
T6 sequence (P38532 whole entry): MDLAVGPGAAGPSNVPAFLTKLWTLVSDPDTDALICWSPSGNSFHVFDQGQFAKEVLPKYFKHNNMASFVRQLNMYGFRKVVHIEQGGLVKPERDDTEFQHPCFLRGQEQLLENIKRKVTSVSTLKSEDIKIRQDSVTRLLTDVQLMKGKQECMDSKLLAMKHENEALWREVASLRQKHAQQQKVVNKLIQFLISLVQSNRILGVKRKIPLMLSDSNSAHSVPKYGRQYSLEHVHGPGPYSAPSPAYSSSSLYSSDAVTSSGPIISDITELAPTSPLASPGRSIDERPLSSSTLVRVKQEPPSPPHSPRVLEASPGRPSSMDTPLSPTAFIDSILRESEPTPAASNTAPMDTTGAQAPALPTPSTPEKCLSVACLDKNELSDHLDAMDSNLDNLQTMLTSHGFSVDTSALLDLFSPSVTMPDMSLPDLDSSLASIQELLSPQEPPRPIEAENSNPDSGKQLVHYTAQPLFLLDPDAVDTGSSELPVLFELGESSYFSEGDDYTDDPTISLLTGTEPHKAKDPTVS
Nature of the test: HSF1 potentiators in luciferase reporter cells, confirmation, cell-based, NIH3T3, luminescence, dose retest (AID 435004).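 Note: stress induced by proteasome inhibitor MG132 added 30 min after compound; luciferase reporter driven by HSF1 response element in NIH3T3 cells; actives raise luminescence as potentiators of the MG132 stress response.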 Format: functional.

In a further test the target is Phospholipase A2 (Homo sapiens, UniProt P04054). It counts as functional.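 Note: confirmatory dose-response counterscreen on phospholipase A2, testing hits that came from an ultra-high-throughput screen for ATG4B inhibitors.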
Phospholipase A2, sequence (P04054 whole entry): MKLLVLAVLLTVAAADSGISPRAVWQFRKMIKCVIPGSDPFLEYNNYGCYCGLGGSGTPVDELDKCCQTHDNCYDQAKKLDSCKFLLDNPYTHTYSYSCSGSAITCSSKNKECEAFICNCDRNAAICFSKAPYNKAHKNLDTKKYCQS
The target in another test is T7, Cysteine protease ATG4B (Homo sapiens, UniProt Q9Y4P1).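 Note: Fluorescence-based dose-response confirmation assay measuring inhibition of ATG4B activity.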
T7 sequence (Q9Y4P1 whole entry): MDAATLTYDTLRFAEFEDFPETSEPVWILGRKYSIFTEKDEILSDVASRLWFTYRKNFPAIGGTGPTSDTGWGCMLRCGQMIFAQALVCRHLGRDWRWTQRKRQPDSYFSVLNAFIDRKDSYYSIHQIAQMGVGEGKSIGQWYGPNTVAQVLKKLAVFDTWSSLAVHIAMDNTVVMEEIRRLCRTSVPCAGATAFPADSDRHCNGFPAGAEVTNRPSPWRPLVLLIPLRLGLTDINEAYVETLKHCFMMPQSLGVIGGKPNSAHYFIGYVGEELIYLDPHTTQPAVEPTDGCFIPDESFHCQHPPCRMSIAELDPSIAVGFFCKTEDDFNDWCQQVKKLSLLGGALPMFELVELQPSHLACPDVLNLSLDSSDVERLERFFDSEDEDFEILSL
It counts as functional.

The text below walks through data of ChEMBL document CHEMBL1201862, “PubChem BioAssay data set” (2004).

The structures appear in SMILES notation. The source made the active and inactive calls.

Beta-galactosidase, sequence (Q8VNN2 whole entry): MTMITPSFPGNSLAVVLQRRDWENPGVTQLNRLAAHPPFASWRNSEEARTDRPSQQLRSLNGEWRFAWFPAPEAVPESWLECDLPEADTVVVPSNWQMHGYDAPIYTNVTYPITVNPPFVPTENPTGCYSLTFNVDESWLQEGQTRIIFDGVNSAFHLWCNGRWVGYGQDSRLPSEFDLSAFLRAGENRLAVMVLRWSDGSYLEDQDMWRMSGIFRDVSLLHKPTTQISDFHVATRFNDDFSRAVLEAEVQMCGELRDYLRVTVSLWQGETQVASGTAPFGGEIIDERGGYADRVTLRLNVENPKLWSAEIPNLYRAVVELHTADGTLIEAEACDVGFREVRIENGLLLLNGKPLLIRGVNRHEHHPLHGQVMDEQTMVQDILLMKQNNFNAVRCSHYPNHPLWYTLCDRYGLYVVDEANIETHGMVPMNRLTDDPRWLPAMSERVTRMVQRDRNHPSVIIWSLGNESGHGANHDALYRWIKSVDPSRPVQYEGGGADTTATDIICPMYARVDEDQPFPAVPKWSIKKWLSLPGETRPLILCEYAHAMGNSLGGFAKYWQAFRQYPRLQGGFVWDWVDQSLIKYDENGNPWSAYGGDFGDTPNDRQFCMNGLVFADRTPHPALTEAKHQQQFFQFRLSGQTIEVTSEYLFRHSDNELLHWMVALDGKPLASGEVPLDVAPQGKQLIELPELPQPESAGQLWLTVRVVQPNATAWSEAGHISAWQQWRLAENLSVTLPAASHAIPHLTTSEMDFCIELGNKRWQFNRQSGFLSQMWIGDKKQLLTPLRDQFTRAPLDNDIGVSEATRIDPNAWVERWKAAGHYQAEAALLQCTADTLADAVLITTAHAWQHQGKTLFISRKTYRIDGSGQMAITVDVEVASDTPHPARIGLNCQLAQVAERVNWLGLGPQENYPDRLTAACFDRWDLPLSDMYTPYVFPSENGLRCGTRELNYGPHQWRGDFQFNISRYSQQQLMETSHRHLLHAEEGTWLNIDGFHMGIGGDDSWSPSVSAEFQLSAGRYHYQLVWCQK

Turning to `O=C1CN(C(=O)CSc2nc3cc(Cl)ccc3c(=O)n2Cc2ccccc2)c2ccccc2N1`, the half-maximal activity concentration (AC50) at DNA topoisomerase is 9.89 µM (active). Further, the CC50 in [1] is 46.4 µM (active).

Consider `COc1ccc(/C=C/c2nc3sc4c(c3c(=O)o2)CCC4)cc1`, for which the EC50 is 46.6 µM (inactive) in test [2], 6.97 µM (inconclusive) in test [3], 125 µM (inconclusive) in test [4] and > 99 µM (inactive) in test [5].

For the molecule `N#Cc1ccc(-c2cccnc2)nc1SCC(=O)c1ccccc1`, the EC50 in [2] is 23.3 µM (inactive); in test [5], 35.9 µM (inactive).

`Cc1ccc(C2=C/C(=C/c3cccs3)C(=O)O2)cc1`: the EC50 is > 99 µM (inactive) in [2] and 28.2 µM (inactive) in [5].

Regarding `Cc1ccc(C(=O)CNc2cccc(Cl)c2)cc1`, the AC50 on DNA topoisomerase was 21.7 µM (active). Besides, at Beta-galactosidase, the EC50 was > 40 µM (inactive). For the same molecule, in test [6], the half-maximal inhibitory concentration (IC50) was 9.87 µM (active).

In the case of `NC(=O)c1ccc(C(F)(F)F)n(Cc2cccc(Cl)c2)c1=O`, the EC50 in [7] was > 260 µM (inactive). For the same molecule, the IC50 at Phospholipase A2 is 3.93 µM (active); at Cysteine protease ATG4B it was 26.3 µM (inactive).
